# Assay: Fluorescence excitation/emission of the styryl dye library compounds
# Type: physicochemical
# Settings: EX/EM peak no. 1
Structure (SMILES),EM(nm),EX(nm)
CC(=O)Nc1ccc(C=Cc2cc[n+](C34CC5CC(CC(C5)C3)C4)cc2)cc1.[Br-] [Compound B18],580,420 nm
COc1ccc2c(ccc(C=Cc3ccc(Br)cc3)[n+]2C)c1.[I-] [Compound I5],650,420 nm
COc1ccc(C=Cc2cccc[n+]2C)c2ccccc12.[I-] [Compound C14],530,390 nm
CCc1ccc(C=Cc2ccccn2)[n+](C)c1.[I-] [Compound E40],610,390 nm
COc1cc(OC)c(OC)cc1C=Cc1cccc[n+]1C.[I-] [Compound C38],580,420 nm
COc1ccc(C=Cc2cc[n+](C)c3ccccc23)cc1OC.[I-] [Compound G11],600,420-480 nm
Cc1cccc(C=Cc2ccc(OCc3ccccc3)c(OCc3ccccc3)c2)[n+]1C.[I-] [Compound L12],520,390 nm
Cc1cccc(C=Cc2ccc3c(c2)OCO3)[n+]1C.[I-] [Compound L39],510,390 nm
CN(C)c1ccc(C=Cc2cc[n+](C)c(Br)c2)cc1.[I-] [Compound F19],610,440(broad) nm
CCc1ccc(C=Cc2cc(OC)c(OC)cc2OC)[n+](C)c1.[I-] [Compound E38],560,430 nm
COc1ccc(C=Cc2cccc[n+]2C)cc1O.[I-] [Compound C15],500,390 nm
CN(C)c1ccc(C=Cc2cccc[n+]2C)c2ccccc12.[I-] [Compound C27],620,450 nm
COc1ccc2c(ccc(C=Cc3ccc(OC)c(OC)c3)[n+]2C)c1.[I-] [Compound I11],560,430 nm
COc1ccc2c(ccc(C=Cc3ccc4ccc5cccc6ccc3c4c56)[n+]2C)c1.[I-] [Compound I41],630,480 nm
COc1ccc2c(ccc(C=Cc3c(OC)ccc4ccccc34)[n+]2C)c1.[I-] [Compound I23],550,340-360 nm
COc1ccc2c(ccc(C=Cc3ccccc3F)[n+]2C)c1.[I-] [Compound I29],580,
C[n+]1ccccc1C=Cc1cccc2ccccc12.[I-] [Compound C32],550,390 nm
COc1ccccc1C=Cc1cc[n+](C23CC4CC(CC(C4)C2)C3)cc1.[Br-] [Compound B9],500,390 nm
C(=Cc1ccc(OCc2ccccc2)c(OCc2ccccc2)c1)c1cc[n+](C23CC4CC(CC(C4)C2)C3)cc1.[Br-] [Compound B12],530,340-444 nm
C[n+]1ccc(C=Cc2ccc3c(c2)OCO3)cc1.[I-] [Compound A39],540,430 nm

Structure (SMILES),EM(nm),EX(nm)
COc1ccc2c(ccc(C=Cc3cc(OC)c(OC)c(OC)c3)[n+]2C)c1.[I-] [Compound I13],580,430 nm
C[n+]1ccc(/C=C/c2ccc3c(c2)Cc2ccccc2-3)c2ccccc21.[I-] [Compound G28],620,450 nm
COc1ccc2c(ccc(C=CC=Cc3ccccc3[N+](=O)[O-])[n+]2C)c1.[I-] [Compound I36],530,360 nm
Cc1ccnc(-c2cc(C=Cc3c4ccccc4cc4ccccc34)cc[n+]2C)c1.[I-] [Compound J34],630,430 nm
Brc1ccc(C=Cc2cc[n+](C34CC5CC(CC(C5)C3)C4)cc2)cc1.[Br-] [Compound B5],570,385 nm
Cc1cccc(/C=C/c2ccc(-c3ccccc3)cc2)[n+]1C.[I-] [Compound L17],500,420 nm
Cc1cccc(/C=C/c2c[nH]c3ccccc23)[n+]1C.[I-] [Compound L24],500,430 nm
COc1ccc(C=Cc2cc[n+](C)c(-c3cc(C)ccn3)c2)c2ccccc12.[I-] [Compound J14],580,420-480 nm
COc1ccc(C=Cc2cc[n+](C34CC5CC(CC(C5)C3)C4)cc2)c2ccccc12.[Br-] [Compound B14],550,360-450 nm
COc1ccc2c(ccc(C=Cc3ccc4c(c3)OCO4)[n+]2C)c1.[I-] [Compound I39],500,380 nm
Cc1cccc(C=Cc2ccc(N(C)C)c3ccccc23)[n+]1C.[I-] [Compound L27],620,430 nm
COc1ccc2c(ccc(C=Cc3ccc([N+](=O)[O-])cc3)[n+]2C)c1.[I-] [Compound I22],510,360 nm
CN(C)c1ccc(C=CC=Cc2cc[n+](C)cc2)cc1.[I-] [Compound A37],580,460-490 nm
C[n+]1ccc(C=Cc2ccc([N+](=O)[O-])cc2)cc1.[I-] [Compound A22],540,400 nm
COc1ccc2c(ccc(C=Cc3ccc(OC)c(O)c3)[n+]2C)c1.[I-] [Compound I15],520,360 nm
Cc1ccc(/C=C/c2ccc3ccccc3[n+]2C)cc1.[I-] [Compound H8],650,530 nm
C[n+]1ccc(C=Cc2ccccc2F)cc1.[I-] [Compound A29],560,400-420 nm
COc1cc(OC)c(OC)cc1C=Cc1cc[n+](C)c(Br)c1.[I-] [Compound F38],540,460 nm
C[n+]1ccc(C=Cc2cccc3ccccc23)cc1Br.[I-] [Compound F32],530,410 nm
CC(=O)Nc1ccc(C=Cc2cc[n+](C)cc2)cc1.[I-] [Compound A18],610,420 nm

Structure (SMILES),EM(nm),EX(nm)
C[n+]1ccc(C=CC=Cc2ccccc2[N+](=O)[O-])cc1.[I-] [Compound A36],700,430 nm
Cc1ccnc(-c2cc(C=Cc3ccc4ccc5cccc6ccc3c4c56)cc[n+]2C)c1.[I-] [Compound J41],630,460 nm
CCc1ccc(C=Cc2ccc(OCc3ccccc3)c(OCc3ccccc3)c2)[n+](C)c1.[I-] [Compound E12],510,400 nm
Cc1ccccc1C=Cc1ccc2ccccc2[n+]1C.[I-] [Compound H7],650,420 nm
C[n+]1ccccc1C=Cc1ccc2c(c1)OCO2.[I-] [Compound C39],520,340 nm
COc1ccc(C=Cc2cc[n+](C)cc2)cc1O.[I-] [Compound A15],510,
C[n+]1c(C=Cc2cccc(Br)c2)ccc2ccccc21.[I-] [Compound H4],640,530 nm
C[n+]1ccc(C=Cc2ccc(O)cc2)cc1Br.[I-] [Compound F16],510,410 nm
Cc1ccnc(-c2cc(/C=C/c3c[nH]c4ccccc34)cc[n+]2C)c1.[I-] [Compound J24],560,420-500 nm
CCc1ccc(C=Cc2cc(OC)c(OC)c(OC)c2)[n+](C)c1.[I-] [Compound E13],540,380 nm
C[n+]1c(/C=C/c2ccccc2)ccc2ccccc21.[I-] [Compound H2],640,480(weak) nm
COc1ccc(C=Cc2cccc(C)[n+]2C)c2ccccc12.[I-] [Compound L14],570,420 (broad) nm
COc1cc(C=Cc2cc[n+](C)c(-c3cc(C)ccn3)c2)cc(OC)c1OC.[I-] [Compound J13],590,
C[n+]1ccc(C=Cc2ccccn2)cc1Br.[I-] [Compound F40],640,540 nm
C[n+]1ccc(/C=C/c2ccc3c(c2)OCO3)cc1Br.[I-] [Compound F39],540,400-420 nm
Cc1cccc(/C=C/c2ccccn2)[n+]1C.[I-] [Compound L40],620,380 nm
Cc1ccnc(-c2cc(C=CC=Cc3ccc(N(C)C)cc3)cc[n+]2C)c1.[I-] [Compound J37],730,550(broad) nm
C[n+]1ccc(C=Cc2ccc(Br)cc2)cc1.[I-] [Compound A5],540,375 nm

# Source: patent US20050054006A1, “Combinatorial fluorescent library based on the styryl scaffold” (New York University, priority 2003, published 2005)
